Laboratory results as given in BindingDB's records for patent US20230295119 (Gossamer Bio Services, 2023).

Assays:
[1] = molecular target: Tyrosine-protein kinase JAK1 (Homo sapiens, UniProt P23458); experiment: JAK1, JAK2, and JAK3 Activity
Protocol: (§1) Compounds described herein were tested for the ability to inhibit activity of human JAK1, JAK2 and JAK3, which was achieved using TR-FRET assays. Briefly, the Kinases JAK1 (2.5 nM), JAK2 (0.025 nM) and JAK3 (0.0125 nM) were incubated with a series of concentrations of the test compound in the presence of […] (biotin-ahx- […]-CONH2), 2 nM Eu-labeled anti-pTYRPY20 and 80 nM Streptavidin APC. After 30 min incubation at RT, ATP ([…] respectively for JAK1, JAK2 and JAK3) was added to start the reaction, and incubated for 80 min at RT. The reaction was stopped by adding detection buffer and incubated for a further 60 min at RT. The samples were analyzed using Envision to calculate % inhibition at each of the series of concentrations of the test compound. The IC50 value of the compounds for each of the kinases were calculated using XLFit software.

[2] = molecular target: T1, Tyrosine-protein kinase JAK3 (Homo sapiens, UniProt P52333); experiment: JAK1, JAK2, and JAK3 Activity
T1 sequence (P52333 whole entry): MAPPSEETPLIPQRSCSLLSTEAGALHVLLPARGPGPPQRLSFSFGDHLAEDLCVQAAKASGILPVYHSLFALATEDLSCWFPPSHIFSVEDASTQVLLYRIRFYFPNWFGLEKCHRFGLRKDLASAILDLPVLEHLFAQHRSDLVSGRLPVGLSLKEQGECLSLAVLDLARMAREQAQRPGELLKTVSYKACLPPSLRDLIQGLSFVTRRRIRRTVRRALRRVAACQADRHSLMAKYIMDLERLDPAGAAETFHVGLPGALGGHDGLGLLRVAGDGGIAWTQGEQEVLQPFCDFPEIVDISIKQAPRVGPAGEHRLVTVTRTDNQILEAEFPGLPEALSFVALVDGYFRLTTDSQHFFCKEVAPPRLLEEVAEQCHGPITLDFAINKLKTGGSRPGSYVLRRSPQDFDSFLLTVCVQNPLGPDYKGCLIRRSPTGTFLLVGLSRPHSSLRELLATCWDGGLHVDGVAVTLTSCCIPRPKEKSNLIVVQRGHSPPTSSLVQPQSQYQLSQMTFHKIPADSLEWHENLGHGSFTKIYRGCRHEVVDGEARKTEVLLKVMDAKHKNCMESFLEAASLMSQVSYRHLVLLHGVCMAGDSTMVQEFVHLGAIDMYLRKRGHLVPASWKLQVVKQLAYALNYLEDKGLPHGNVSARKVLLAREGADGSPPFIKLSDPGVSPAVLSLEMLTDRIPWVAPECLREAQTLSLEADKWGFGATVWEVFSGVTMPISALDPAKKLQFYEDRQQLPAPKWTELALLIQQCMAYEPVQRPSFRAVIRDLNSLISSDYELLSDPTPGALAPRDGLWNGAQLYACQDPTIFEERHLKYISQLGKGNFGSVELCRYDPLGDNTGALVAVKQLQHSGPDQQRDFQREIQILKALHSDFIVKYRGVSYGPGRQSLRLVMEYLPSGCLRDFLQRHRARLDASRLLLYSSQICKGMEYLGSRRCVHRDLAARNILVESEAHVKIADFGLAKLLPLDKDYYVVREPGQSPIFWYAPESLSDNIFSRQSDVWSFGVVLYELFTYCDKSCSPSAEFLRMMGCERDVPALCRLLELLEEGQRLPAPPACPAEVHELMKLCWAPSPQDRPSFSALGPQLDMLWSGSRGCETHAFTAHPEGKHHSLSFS
Protocol: as §1

[3] = JAK1, JAK2, and JAK3 Activity
[4] = molecular target: Tyrosine-protein kinase JAK2 (Homo sapiens, UniProt O60674); experiment: JAK1, JAK2, and JAK3 Activity
Tyrosine-protein kinase JAK2, sequence (O60674 whole entry): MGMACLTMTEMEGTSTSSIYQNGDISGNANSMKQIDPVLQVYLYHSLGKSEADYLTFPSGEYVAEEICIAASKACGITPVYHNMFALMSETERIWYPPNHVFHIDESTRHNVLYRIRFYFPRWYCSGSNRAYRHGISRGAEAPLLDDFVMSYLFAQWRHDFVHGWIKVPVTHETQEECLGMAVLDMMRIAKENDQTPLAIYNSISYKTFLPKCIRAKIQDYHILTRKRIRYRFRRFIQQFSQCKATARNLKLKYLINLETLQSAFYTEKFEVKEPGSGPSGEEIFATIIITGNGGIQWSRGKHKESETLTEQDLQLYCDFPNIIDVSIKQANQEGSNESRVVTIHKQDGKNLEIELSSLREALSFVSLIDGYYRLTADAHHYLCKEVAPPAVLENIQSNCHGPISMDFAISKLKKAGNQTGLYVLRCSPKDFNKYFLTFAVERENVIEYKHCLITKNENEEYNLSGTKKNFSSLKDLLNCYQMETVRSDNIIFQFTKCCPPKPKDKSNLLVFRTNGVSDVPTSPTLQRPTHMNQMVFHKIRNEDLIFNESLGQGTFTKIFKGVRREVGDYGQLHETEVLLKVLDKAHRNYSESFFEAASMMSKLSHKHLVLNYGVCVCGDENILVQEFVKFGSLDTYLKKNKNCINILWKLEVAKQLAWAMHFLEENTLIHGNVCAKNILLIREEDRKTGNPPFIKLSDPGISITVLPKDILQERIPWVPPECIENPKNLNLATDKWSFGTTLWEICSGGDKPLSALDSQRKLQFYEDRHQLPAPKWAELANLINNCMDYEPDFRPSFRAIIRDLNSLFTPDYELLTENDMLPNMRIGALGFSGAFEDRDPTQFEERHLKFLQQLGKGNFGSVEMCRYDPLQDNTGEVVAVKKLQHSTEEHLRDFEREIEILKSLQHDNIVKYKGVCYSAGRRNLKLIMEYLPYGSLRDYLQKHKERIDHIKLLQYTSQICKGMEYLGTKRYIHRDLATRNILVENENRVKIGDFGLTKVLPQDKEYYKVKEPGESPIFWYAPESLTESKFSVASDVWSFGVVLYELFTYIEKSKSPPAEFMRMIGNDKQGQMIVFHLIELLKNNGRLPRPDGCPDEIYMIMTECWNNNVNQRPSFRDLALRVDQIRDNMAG
Protocol: as §1

Tyrosine-protein kinase JAK1, sequence (P23458 whole entry): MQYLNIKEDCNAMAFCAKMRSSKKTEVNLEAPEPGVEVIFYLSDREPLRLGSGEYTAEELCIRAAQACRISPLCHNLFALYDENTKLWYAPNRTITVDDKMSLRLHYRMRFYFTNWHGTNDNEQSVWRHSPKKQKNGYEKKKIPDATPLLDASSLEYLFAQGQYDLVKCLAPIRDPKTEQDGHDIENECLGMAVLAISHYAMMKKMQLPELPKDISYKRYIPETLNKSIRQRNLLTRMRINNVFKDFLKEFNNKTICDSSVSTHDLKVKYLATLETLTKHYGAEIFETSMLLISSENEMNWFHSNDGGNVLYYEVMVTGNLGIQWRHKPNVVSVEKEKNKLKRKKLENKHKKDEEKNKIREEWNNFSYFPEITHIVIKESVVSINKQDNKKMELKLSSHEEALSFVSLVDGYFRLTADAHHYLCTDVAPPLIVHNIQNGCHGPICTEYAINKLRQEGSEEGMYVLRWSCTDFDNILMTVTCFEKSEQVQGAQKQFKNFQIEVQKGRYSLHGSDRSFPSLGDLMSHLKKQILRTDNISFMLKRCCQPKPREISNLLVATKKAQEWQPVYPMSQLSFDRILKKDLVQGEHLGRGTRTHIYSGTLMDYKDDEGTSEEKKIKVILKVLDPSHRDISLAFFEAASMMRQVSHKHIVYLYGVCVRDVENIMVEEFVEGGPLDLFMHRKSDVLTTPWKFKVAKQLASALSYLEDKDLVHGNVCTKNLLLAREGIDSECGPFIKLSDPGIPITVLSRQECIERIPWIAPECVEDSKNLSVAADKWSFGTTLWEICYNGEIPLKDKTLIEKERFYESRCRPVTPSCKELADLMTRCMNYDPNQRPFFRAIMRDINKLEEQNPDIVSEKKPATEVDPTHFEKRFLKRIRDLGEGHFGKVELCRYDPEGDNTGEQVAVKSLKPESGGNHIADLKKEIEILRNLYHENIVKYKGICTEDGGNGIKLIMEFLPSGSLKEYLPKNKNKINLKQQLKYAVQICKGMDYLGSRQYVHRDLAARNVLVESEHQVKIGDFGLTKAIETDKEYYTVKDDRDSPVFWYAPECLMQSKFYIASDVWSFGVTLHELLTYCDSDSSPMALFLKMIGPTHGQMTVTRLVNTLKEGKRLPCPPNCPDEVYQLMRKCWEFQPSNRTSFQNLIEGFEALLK

## CCC(=O)c1cnc(Nc2cc(C(C)NC)ncn2)cc1Nc1cccc(-c2ncn(C)n2)c1OC (configuration not stated) [US20230295119, Compound 9PPPP]
[1]
  IC50: > 500 nM
[2]
  IC50: > 500 nM
[3]
  IC50: < 5 nM

## CCC(=O)c1cnc(Nc2cnc(O[C@@H]3CCN(CC)C3)cn2)cc1Nc1cccc(-c2ncn(C)n2)c1OC [US20230295119, Compound 18DDD]
[1]
  IC50: > 500 nM
[4]
  IC50: > 500 nM
[2]
  IC50: > 500 nM

## CCC(=O)c1cnc(Nc2ccc(CN3CCN(C)CC3)nn2)cc1Nc1cccc(-c2ncn(C)n2)c1OC [US20230295119, Compound 9PPP]
[1]
  IC50: > 500 nM
[2]
  IC50: > 500 nM

## CCC(=O)c1cnc(Nc2cnc(OCCN3CCN(C)CC3)cn2)cc1Nc1cccc(-c2ncn(C)n2)c1OC [US20230295119, Compound 18FFF]
[1]
  IC50: > 500 nM
[4]
  IC50: > 500 nM
[2]
  IC50: > 500 nM
[3]
  IC50: < 5 nM
